From patent US20250009742A1 (priority 2021, published 2025) come the findings set out here.

The subject of the assay is intracellular HBV DNA. In words: Real-time PCR for intracellular HBV DNA in HepAD38 cells. In kind it is cell-based. The following applies: Hepatitis B virus, HePAD38, 65 h, 65 hours treatment. As to the method:
HepAD38 cells were cultured in DMEM medium (Welgene) supplemented with 200 unit/mL penicillin, 200 μg/mL streptomycin, and 10% FBS. During maintenance and passage, the cells were cultured together with 0.4 μg/mL tetracycline. Two days before the treatment with compounds for inducing HBV replication was started, the medium was replaced with a tetracycline-free complete growth medium. […]
HepAD38 cells were treated with a compound for 65 hours and then recovered, and intracellular HBV DNA was extracted therefrom according to the protocol in the DNeasy Blood & Tissue Kit (Qiagen). The primers and probes used to quantify HBV DNA were 5′-[…]-3′, 5′-[…]-3′, and 5′-/56-FAM/TGT CCT GGT/ZEN/TAT CGC TGG ATG TGT CT/3IABkFQ/-3′. The HBV DNA was amplified by real-time PCR assay using LightCycler 480 (Roche) (J. Virol., 2018, 92(16):e00339-18). All of the processes were confirmed in duplicate.
A general note: In qPCR the cycle at which signal appears reflects the starting amount.

What is called IC50 is the concentration that gives 50% inhibition. A low value points to higher potency. Compound `COc1ccc(N(Cc2n[nH]c(C(F)(F)F)c2CC2OC(C)(C)C(C)(C)O2)C(=O)Nc2ccc(F)c(Cl)c2)cn1` [Example 87, 3-(3-chloro-4-fluorophenyl)-1-(6-methoxypyridin-3-yl)-1-((4-((4,4,5,5-tetramethyl-1,3-dioxolan-2-yl)methyl)-5-(trifluoromethyl)-1H-pyrazol-3-yl)methyl)urea] showed an IC50 of 0.034 µM. In other words, the double-digit nanomolar range.
Regarding `COc1ccc(N(Cc2n[nH]c(C(F)F)c2OC)C(=O)Nc2ccc(F)c(Cl)c2)cn1` [Example 100, 3-(3-chloro-4-fluorophenyl)-1-((5-(difluoromethyl)-4-methoxy-1H-pyrazol-3-yl)methyl)-1-(6-methoxypyridin-3-yl)urea], the concentration for half-maximal inhibition (IC50) stood at 0.036 µM. The IC50 values of the last two compounds are within 1.5-fold of each other.
Compound `COc1ncc(N(Cc2n[nH]c(C(F)(F)F)c2CC(C)(C)O)C(=O)Nc2ccc(F)c(Cl)c2)cn1` [Example 101, 3-(3-chloro-4-fluorophenyl)-1-((4-(2-hydroxy-2-methylpropyl)-5-(trifluoromethyl)-1H-pyrazol-3-yl)methyl)-1-(2-methoxypyrimidin-5-yl)urea] showed an IC50 greater than 1.1 µM.
For `COc1ncc(N(Cc2n[nH]c(C(F)F)c2CC(C)(C)O)C(=O)Nc2ccc(F)c(Cl)c2)cn1` [Example 103, 3-(3-chloro-4-fluorophenyl)-1-((5-(difluoromethyl)-4-(2-hydroxy-2-methylpropyl)-1H-pyrazol-3-yl)methyl)-1-(2-methoxypyrimidin-5-yl)urea] the value was greater than 1.1 µM; for `COc1ncc(N(Cc2cc(C#N)[nH]n2)C(=O)Nc2ccc(F)c(Cl)c2)cn1` [Example 104, 3-(3-chloro-4-fluorophenyl)-1-((5-cyano-1H-pyrazol-3-yl)methyl)-1-(2-methoxypyrimidin-5-yl)urea], 0.027 µM; for `COc1ncc(N(Cc2cc(C(F)(F)F)[nH]n2)C(=O)Nc2ccc(F)c(Cl)n2)cn1` [Example 106, 3-(6-chloro-5-fluoropyridin-2-yl)-1-(2-methoxypyrimidin-5-yl)-1-((5-(trifluoromethyl)-1H-pyrazol-3-yl)methyl)urea], 0.12 µM.
The same measure for `COc1ncc(N(Cc2cc(C(F)(F)F)[nH]n2)C(=O)Nc2cnc(F)c(Cl)c2)cn1` [Example 107, 3-(5-chloro-6-fluoropyridin-3-yl)-1-(2-methoxypyrimidin-5-yl)-1-((5-(trifluoromethyl)-1H-pyrazol-3-yl)methyl)urea]: 0.062 µM.
Regarding `N#Cc1cc(N(Cc2n[nH]c3c2COCC3)C(=O)Nc2ccc(F)c(Cl)c2)ccn1` [Example 123, 3-(3-chloro-4-fluorophenyl)-1-(2-cyanopyridin-4-yl)-1-((1,4,6,7-tetrahydropyrano[4,3-c]pyrazol-3-yl)methyl)urea], half-maximal inhibition (IC50) required 0.249 µM.
`N#Cc1ccc(N(Cc2n[nH]c3c2CCCO3)C(=O)Nc2ccc(F)c(Cl)c2)cn1` [Example 124, 3-(3-chloro-4-fluorophenyl)-1-(6-cyanopyridin-3-yl)-1-((1,4,5,6-tetrahydropyrano[2,3-c]pyrazol-3-yl)methyl)urea] gave an IC50 of 0.047 µM.
For `N#Cc1ccc(N(Cc2cc(C(F)F)[nH]n2)C(=O)Nc2ccc(F)c(Cl)c2)cn1` [Example 126, 3-(3-chloro-4-fluorophenyl)-1-(6-cyanopyridin-3-yl)-1-((5-(difluoromethyl)-1H-pyrazol-3-yl)methyl)urea] the value was 0.54 µM; for `O=C(Nc1ccc(F)c(Cl)c1)N(Cc1cc(C(F)(F)F)[nH]n1)C12CC(C1)C2` [Example 137, 1-(bicyclo[1.1.1]pentan-1-yl)-3-(3-chloro-4-fluorophenyl)-1-((5-(trifluoromethyl)-1H-pyrazol-3-yl)methyl)urea], 0.37 µM.
The same measure for `COc1ncc(N(Cc2cc(C(F)F)[nH]n2)C(=O)Nc2cc(C)c(F)c(Cl)c2)cn1` [Example 139, 3-(3-chloro-4-fluoro-5-methylphenyl)-1-((5-(difluoromethyl)-1H-pyrazol-3-yl)methyl)-1-(2-methoxypyrimidin-5-yl)urea]: 0.04 µM; for `COc1ncc(N(Cc2cc(C(F)(F)F)[nH]n2)C(=O)Nc2cc(C)c(F)c(Cl)c2)cn1` [Example 140, 3-(3-chloro-4-fluoro-5-methylphenyl)-1-(2-methoxypyrimidin-5-yl)-1-((5-(trifluoromethyl)-1H-pyrazol-3-yl)methyl)urea]: 0.037 µM.
The same measure for `COc1ncc(N(Cc2cc(C(F)(F)F)[nH]n2)C(=O)Nc2nc(Cl)cc(C)c2F)cn1` [Example 141, 3-(6-chloro-3-fluoro-4-methylpyridin-2-yl)-1-(2-methoxypyrimidin-5-yl)-1-((5-(trifluoromethyl)-1H-pyrazol-3-yl)methyl)urea]: 0.42 µM; for `COc1ncc(N(Cc2cc(C(F)(F)F)[nH]n2)C(=O)Nc2cnc(Cl)nc2)cn1` [Example 143, 3-(2-chloropyrimidin-5-yl)-1-(2-methoxypyrimidin-5-yl)-1-((5-(trifluoromethyl)-1H-pyrazol-3-yl)methyl)urea]: greater than 1.1 µM; for `COc1ncc(N(Cc2cc(C(F)F)[nH]n2)C(=O)Nc2cccc(C#N)c2)cn1` [Example 147, 3-(3-cyanophenyl)-1-((5-(difluoromethyl)-1H-pyrazol-3-yl)methyl)-1-(2-methoxypyrimidin-5-yl)urea]: 0.08 µM.
For the compound `COc1ncc(N(Cc2cc(C(F)(F)F)[nH]n2)C(=O)Nc2cc(F)c(F)c(C#N)c2)cn1` [Example 149, 3-(3-cyano-4,5-difluorophenyl)-1-(2-methoxypyrimidin-5-yl)-1-((5-(trifluoromethyl)-1H-pyrazol-3-yl)methyl)urea], inhibition was half-maximal at 0.6 µM (IC50).
`COc1ncc(N(Cc2cc(C(F)F)[nH]n2)C(=O)Nc2cc(F)c(F)c(C#N)c2)cn1` [Example 150, 3-(3-cyano-4,5-difluorophenyl)-1-((5-(difluoromethyl)-1H-pyrazol-3-yl)methyl)-1-(2-methoxypyrimidin-5-yl)urea] gave a half-inhibitory concentration (IC50) greater than 1.1 µM.
On to `COc1ncc(N(Cc2cc(C#N)[nH]n2)C(=O)Nc2ccc(F)c(C#N)c2)cn1` [Example 157, 1-((5-cyano-1H-pyrazol-3-yl)methyl)-3-(3-cyano-4-fluorophenyl)-1-(2-methoxypyrimidin-5-yl)urea], for which the IC50 was 0.066 µM.
The same measure for `COc1ncc(N(Cc2cc(C(F)(F)F)[nH]n2)C(=O)Nc2ccnc(C#N)c2F)cn1` [Example 158, 3-(2-cyano-3-fluoropyridin-4-yl)-1-(2-methoxypyrimidin-5-yl)-1-((5-(trifluoromethyl)-1H-pyrazol-3-yl)methyl)urea]: 0.23 µM.
For `COc1ncc(N(Cc2cc(C(F)(F)F)[nH]n2)C(=O)Nc2ccc(F)c(C#N)n2)cn1` [Example 160, 3-(6-cyano-5-fluoropyridin-2-yl)-1-(2-methoxypyrimidin-5-yl)-1-((5-(trifluoromethyl)-1H-pyrazol-3-yl)methyl)urea] the value was 0.43 µM; for `COc1ncc(N(Cc2cc(C(F)(F)F)[nH]n2)C(=O)Nc2cc(C#N)c(F)cn2)cn1` [Example 161, 3-(4-cyano-5-fluoropyridin-2-yl)-1-(2-methoxypyrimidin-5-yl)-1-((5-(trifluoromethyl)-1H-pyrazol-3-yl)methyl)urea], 0.074 µM; for `COC12CC(N(Cc3cc(C(F)(F)F)[nH]n3)C(=O)Nc3ccc(F)c(C#N)c3)(C1)C2` [Example 162, 3-(3-cyano-4-fluorophenyl)-1-(3-methoxybicyclo[1.1.1]pentan-1-yl)-1-((5-(trifluoromethyl)-1H-pyrazol-3-yl)methyl)urea], 0.036 µM.
